Experimental findings from ChEMBL document CHEMBL1201862, “PubChem BioAssay data set” (2004) are described below.

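Each compound was tested at five concentrations against cells in 96-well plates for 48 hours. GI50 marks 50% less growth.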 Calls of active or inactive are those of the source. Cut-off read from the data, not from the text of the source: active = GI50 up to about 1.1 µM and inactive = higher.

Some test systems named below: SN12C; UACC-257; SF-268; HCT-116; SW-620; MDA-MB-231; KM12; T47D; HCT-15; HOP-62; OVCAR-5; RPMI-8226; IGROV-1; EKVX; SNB-19; A498; SF-539; RXF 393; SR; K562.
Common to all, as to assay: growth of human tumour cells (NCI), 48 h

For the compound `CC(C)(C)C1=NN=C2c3ccccc3C(=O)C21` (stereo not given), the GI50 was 42.6 µM (inactive) with SN12C; 62.7 µM (inactive) in the assay on UACC-257; 58.9 µM (inactive) with SF-268; > 100 µM (inactive) in the assay on HCT-116; 65.6 µM (inactive) in the assay on SW-620; 40.4 µM (inactive) in the assay on MDA-MB-231. Also, the GI50 was 18.9 µM (inactive) in the assay with KM12; > 100 µM (inactive) with T47D; 29.4 µM with HCT-15; > 100 µM (inactive) with HOP-62; 51.8 µM (inactive) in the assay on OVCAR-5; 32.1 µM (inactive) with RPMI-8226. The GI50 with IGROV-1 was 56.1 µM (inactive); with EKVX, 27.4 µM (inactive); with SNB-19, 91.2 µM (inactive); with A498 it was 21.3 µM (inactive); in the assay on SF-539, 38.4 µM (inactive); with RXF 393, 81.3 µM (inactive). In addition, the GI50 in the assay with SR was 24.8 µM (inactive); in the assay with K562, 35.2 µM (inactive).
As for `O=[N+]([O-])/C(C(Cl)=C(Cl)Cl)=C(/Sc1ccccc1)N1CCOCC1`, the GI50 with SN12C was 4.76 µM (inactive); in the assay with UACC-257, 9.91 µM (inactive); with SF-268 it was 4.46 µM (inactive); with HCT-116, 1.67 µM (inactive); in the assay with SW-620 it was 2.26 µM (inactive); in the assay on MDA-MB-231 it was 5.12 µM (inactive). Moreover, the GI50 in the assay with KM12 is 13.4 µM (inactive); in the assay with T47D it was 3.02 µM (inactive); in the assay with HCT-15 it was 3.45 µM; in the assay on HOP-62, 17.5 µM (inactive); in the assay with OVCAR-5, 16.4 µM (inactive); with RPMI-8226 it was 2.62 µM (inactive). For the same compound, the GI50 was 3.13 µM (inactive) in the assay on IGROV-1; 9.75 µM (inactive) in the assay with EKVX; 6.75 µM (inactive) in the assay with SNB-19; 14.6 µM (inactive) in the assay with A498; 6.03 µM (inactive) with SF-539; 1.92 µM (inactive) in the assay on RXF 393. The GI50 in the assay with SR was 2.12 µM (inactive); in the assay on K562 it was 1.74 µM (inactive).
`CC1=NC(C)(COC(=O)C2(C)NC(C)(CO)CO2)COC1=O` (stereo not given): the GI50 in the assay with SN12C, in the assay with UACC-257, in the assay on SF-268, with HCT-116, with SW-620 and with MDA-MB-231 was > 100 µM (inactive) throughout. For the same compound, the GI50 was > 100 µM (inactive) in the assay on KM12; > 100 µM (inactive) in the assay with T47D; > 100 µM in the assay on HCT-15; > 100 µM (inactive) with HOP-62; > 100 µM (inactive) with OVCAR-5; > 100 µM (inactive) in the assay on RPMI-8226. The GI50 in the assay with IGROV-1, in the assay on EKVX, in the assay with SNB-19, in the assay with A498, in the assay with SF-539 and in the assay with RXF 393 was > 100 µM (inactive) each time. Further, the GI50 in the assay on SR was > 33 µM (inactive); in the assay with K562, > 100 µM (inactive).
Take `OCC(CCc1c[nH]c2ccccc12)c1c[nH]c2ccccc12` (stereo not given): the GI50 with SN12C is 17.5 µM (inactive); in the assay with UACC-257, 11.6 µM (inactive); in the assay on SF-268, 17.3 µM (inactive); with HCT-116, 15.5 µM (inactive); with SW-620, 15.7 µM (inactive); in the assay with MDA-MB-231, 14.1 µM (inactive). Further, the GI50 in the assay with KM12 was 15.9 µM (inactive); in the assay with T47D it was 16 µM (inactive); in the assay on HCT-15, 14.7 µM; in the assay on HOP-62, 20.5 µM (inactive); in the assay on OVCAR-5, 17.4 µM (inactive); in the assay with RPMI-8226 it was 27 µM (inactive). The GI50 in the assay on IGROV-1 was 12.7 µM (inactive); with EKVX, 14.7 µM (inactive); with SNB-19 it was 16.7 µM (inactive); in the assay with A498, 15.2 µM (inactive); in the assay on SF-539, 18.4 µM (inactive); in the assay on RXF 393 it was 15.3 µM (inactive). The results for the GI50 in the assay on SR and in the assay with K562 were 12.1 µM (inactive) and 18.2 µM (inactive), respectively.
